In patent EP2530078A1, “THIAZOLE DERIVATIVE” (Takeda Pharmaceutical Company Limited, priority 2010, dated 2011):

How the values were obtained:
[1] = biological target: T1, human GPR52 (Homo sapiens, UniProt Q9Y2T5); test: Increase of intracellular cAMP concentration in human GPR52-expressing CHO cell (AlphaScreen cAMP assay); format: cell-based; conditions: test compound 10 µm, 37°C, 30 min, human GPR52-expressing CHO(dhfr-) cells, 100% = cAMP with 1 µM N-(2-hydroxyethyl)-3-[2-[3-(trifluoromethyl)benzyl]-1-benzofuran-4-yl]benzamide, 0% = DMSO; for activation at 10 µM: 0.5 h, read-out: GPR52 agonist activity (%)
T1 construct: expressed in transfected cells; host or cells: CHO(dhfr-) cells
Protocol: Increase of intracellular cAMP concentration in human GPR52-expressing CHO cell
Using OptiPlate-384 (PerkinElmer Inc.), 1×10^4 human GPR52-expressing CHO(dhfr-) cells were incubated together with a test compound ([…]) in an assay buffer (30 µL, HBSS (containing Ca^2+ and Mg^2+), 0.5% BSA, 100 µM IBMX, 100 µM Ro20-1724, 5 mM HEPES (pH 7.55)) at 37°C for 30 min. Thereafter, according to the protocol of AlphaScreen cAMP Assay Kit (PerkinElmer Inc.), the intracellular cAMP concentration was measured by EnVision (PerkinElmer Inc.). The GPR52 agonist activity was calculated, assuming the intracellular cAMP concentration in the presence of 1 µM N-(2-hydroxyethyl)-3-[2-[3-(trifluoromethyl)benzyl]-1-benzofuran-4-yl]benzamide to be 100% and assuming the intracellular cAMP concentration when DMSO was added instead of the test compound to be 0%.

[2] = test system: methamphetamine-induced locomotor hyperactivity in mice; test: Inhibition test of methamphetamine-induced locomotor hyperactivity; format: in vivo; conditions: male ICR mice, test compound 30 mg/kg body weight orally, methamphetamine 2 mg/kg body weight subcutaneously 60 min later; relative to vehicle treatment group
Protocol: Inhibition test of methamphetamine-induced locomotor hyperactivity
The compound of the present invention can be evaluated by assessing its capacity to inhibit methamphetamine-induced locomotor hyperactivity in mice. The method of Okuyama et al (Life Science, Vol. 65, p. 2109-2125 (1999)) was modified and used for testing the inhibition of methamphetamine-induced locomotor hyperactivity.
Locomotor activity was measured using a 32-channel locomotor activity measurement device MDC-LT (BrainScience Idea Co., Ltd.), which emits infrared beams from the top of a cage (30 cm x 40 cm x 20 cm). 6- to 8-Week-old male ICR mice were acclimated for at least 45 min in the measurement cages, and then either test compound (30 mg/kg body weight) dissolved in vehicle (0.5% aqueous methylcellulose solution) or the vehicle alone was orally administered to the laboratory animals. This oral administration was followed 60 min later by subcutaneous administration of methamphetamine (2 mg/kg body weight).
The number of times the laboratory animals passed through the infrared beams emitted inside the measurement cages in 150 min after administration of the test compound or vehicle was counted to quantify locomotor activity. The methamphetamine-induced locomotor hyperactivity inhibition rate (activity inhibition rate (%)) was calculated by the following equation. Activityinhibitionrate(%) = {1-(locomotoractivityoftestcompoundtreatmentgroupaftertreatmentwithmethamphetamine÷locomotoractivityofvehicletreatmentgroupaftertreatmentwithmethamphetamine)}x100 [formula]

T1 sequence (Q9Y2T5 whole entry): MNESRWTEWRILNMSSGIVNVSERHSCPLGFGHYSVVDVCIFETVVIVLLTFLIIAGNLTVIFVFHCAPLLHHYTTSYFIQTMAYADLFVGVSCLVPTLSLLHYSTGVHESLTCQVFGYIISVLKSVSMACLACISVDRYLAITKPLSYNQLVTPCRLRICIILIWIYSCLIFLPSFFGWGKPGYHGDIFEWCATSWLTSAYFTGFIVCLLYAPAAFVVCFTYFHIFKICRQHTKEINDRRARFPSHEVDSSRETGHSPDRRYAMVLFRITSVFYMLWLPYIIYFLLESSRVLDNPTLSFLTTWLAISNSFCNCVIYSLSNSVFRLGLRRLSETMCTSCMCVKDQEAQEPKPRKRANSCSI

| Compound | activation at 10 µM [1] [%] | motor activity suppression rate (%) [2] [%] | GPR52 agonist activity (%) [1] [%] |
| --- | --- | --- | --- |
| CCCn1nccc1C(=O)Nc1sc(Cc2cc(F)cc(Cl)c2)nc1C [Example 153, N-[2-(3-chloro-5-fluorobenzyl)-4-methyl-1,3-thiazol-5-yl]-1-propyl-1H-pyrazole-5-carboxamide] | 72 | 39 |  |
| Cc1nc(Cc2cc(F)cc(Cl)c2)sc1NC(=O)c1ccnn1C [Example 145, N-[2-(3-chloro-5-fluorobenzyl)-4-methyl-1,3-thiazol-5-yl]-1-methyl-1H-pyrazole-5-carboxamide] | 95 | 47 |  |
| Cc1nc(Cc2cc(F)cc(C(F)(F)F)c2)sc1NC(=O)c1ccnn1C [Example 181, N-{2-[3-fluoro-5-(trifluoromethyl)benzyl]-4-methyl-1,3-thiazol-5-yl}-1-methyl-1H-pyrazole-5-carboxamide] | 91 |  |  |
| COC(=O)[C@@H]1C[C@@H]1C(=O)Nc1sc(Cc2cc(F)cc(Cl)c2)nc1C (relative stereo) [Example 190, methyl cis-2-{[2-(3-chloro-5-fluorobenzyl)-4-methyl-1,3-thiazol-5-yl]carbamoyl}cyclopropanecarboxylate] | 82 |  |  |
| COCCNC(=O)C1(C(=O)Nc2sc(Cc3cc(F)cc(Cl)c3)nc2C)CC1 [Example 175, N-[2-(3-chloro-5-fluorobenzyl)-4-methyl-1,3-thiazol-5-yl]-N'-(2-methoxyethyl)cyclopropane-1,1-dicarboxamide] | 71 |  |  |
| Cc1nc(Cc2cc(F)cc(Cl)c2)sc1NC(=O)c1ccnn1C(F)F [Example 150, N-[2-(3-chloro-5-fluorobenzyl)-4-methyl-1,3-thiazol-5-yl]-1-(difluoromethyl)-1H-pyrazole-5-carboxamide] | 69 |  |  |
| Cc1nc(Cc2cc(F)cc(Cl)c2)sc1NC(=O)c1cc(C(N)=O)nn1C [Example 164, N^5-[2-(3-chloro-5-fluorobenzyl)-4-methyl-1,3-thiazol-5-yl]-1-methyl-1H-pyrazole-3,5-dicarboxamide] | 80 |  |  |
| Cc1nc(Cc2cccc(C(F)(F)F)c2)sc1NC(=O)c1ccoc1C [Example 40, 2-methyl-N-{4-methyl-2-[3-(trifluoromethyl)-benzyl]-1,3-thiazol-5-yl}furan-3-carboxamide] | 80 |  |  |
| Cc1nc(Cc2cc(F)cc(Cl)c2)sc1NC(=O)c1scnc1C [Example 184, N-[2-(3-chloro-5-fluorobenzyl)-4-methyl-1,3-thiazol-5-yl]-4-methyl-1,3-thiazole-5-carboxamide] | 87 |  |  |
| CCn1nccc1C(=O)Nc1sc(Cc2cc(F)cc(Cl)c2)nc1C [Example 148, N-[2-(3-chloro-5-fluorobenzyl)-4-methyl-1,3-thiazol-5-yl]-1-ethyl-1H-pyrazole-5-carboxamide] | 76 | 67 |  |
| N^4-[2-(3-chloro-5-fluorobenzyl)-4-methyl-1,3-thiazol-5-yl]piperidine-1,4-dicarboxamide [Example 254] |  |  | 77 |
| CC(=O)Nc1cn(C)c(C(=O)Nc2sc(Cc3cc(F)cc(Cl)c3)nc2C)n1 [Example 176, 4-(acetylamino)-N-[2-(3-chloro-5-fluorobenzyl)-4-methyl-1,3-thiazol-5-yl]-1-methyl-1H-imidazole-2-carboxamide] | 99 |  |  |
| Cc1nc(Cc2cc(F)cc(Cl)c2)sc1NC(=O)c1cc(Cn2ccnc2)nn1C [Example 243, N-[2-(3-chloro-5-fluorobenzyl)-4-methyl-1,3-thiazol-5-yl]-3-[(1H-imidazol-1-yl)methyl]-1-methyl-1H-pyrazole-5-carboxamide] | 77 |  |  |
| Cc1nc(Cc2cccc(C(F)(F)F)c2)sc1NC(=O)c1nccn1C [Example 41, 1-methyl-N-{4-methyl-2-[3-(trifluoromethyl)-benzyl]-1,3-thiazol-5-yl}-1H-imidazole-2-carboxamide] | 72 |  |  |
| CCN1CC(C(=O)Nc2sc(Cc3cccc(C(F)(F)F)c3)nc2C)CC1=O (stereo not drawn) [Example 4, 1-ethyl-N-(4-methyl-2-[3-(trifluoromethyl)benzyl]-1,3-thiazol-5-yl}-5-oxopyrrolidine-3-carboxamide] | 72 |  |  |
| Cc1nc(Cc2cccc(C(F)(F)F)c2)sc1NC(=O)c1ccc(CCN2CCCC2)nc1 [Example 122, N-{4-methyl-2-[3-(trifluoromethyl)-benzyl]-1,3-thiazol-5-yl}-6-(2-pyrrolidin-1-ylethyl)pyridine-3-carboxamide] | 96 |  |  |
| Cc1nc(Cc2cc(F)cc(Cl)c2)sc1NC(=O)c1cc(CS(C)(=O)=O)nn1C [Example 242, N-[2-(3-chloro-5-fluorobenzyl)-4-methyl-1,3-thiazol-5-yl]-1-methyl-3-[(methylsulfonyl)methyl]-1H-pyrazole-5-carboxamide] | 76 |  |  |
| Cc1nc(Cc2cc(F)cc(Cl)c2)sc1NC(=O)c1c(C)noc1C [Example 186, N-[2-(3-chloro-5-fluorobenzyl)-4-methyl-1,3-thiazol-5-yl]-3,5-dimethylisoxazole-4-carboxamide] | 94 |  |  |
| CSc1ncccc1C(=O)Nc1sc(Cc2cccc(C(F)(F)F)c2)nc1C [Example 76, 2-(methylsulfanyl)-N-{4-methyl-2-[3-(trifluoromethyl)-benzyl]-1,3-thiazol-5-yl}pyridine-3-carboxamide] | 86 |  |  |
| Cc1nc(Cc2cccc(S(C)(=O)=O)c2)sc1NC(=O)c1ccnn1C [Example 233, 1-methyl-N-{4-methyl-2-[3-(methylsulfonyl)benzyl]-1,3-thiazol-5-yl}-1H-pyrazole-5-carboxamide] | 81 |  |  |
| Cc1nc(Cc2cccc(C(F)(F)F)c2)sc1NC(=O)c1ccnn1C [Example 3, 1-methyl-N-{4-methyl-2-[3-(trifluoromethyl)benzyl]-1,3-thiazol-5-yl}-1H-pyrazole-5-carboxamide] |  | 32 | 81 |
| Cc1nn(C)cc1C(=O)Nc1sc(Cc2cc(F)cc(Cl)c2)nc1C [Example 146, N-[2-(3-chloro-5-fluorobenzyl)-4-methyl-1,3-thiazol-5-yl]-1,3-dimethyl-1H-pyrazole-4-carboxamide] | 84 | 42 |  |
| Cc1nc(Cc2cc(F)cc(Cl)c2)sc1NC(=O)Cn1cnnn1 [Example 252, N-[2-(3-chloro-5-fluorobenzyl)-4-methyl-1,3-thiazol-5-yl]-2-(1H-tetrazol-1-yl)acetamide] | 72 |  |  |
| Cc1cc(C(=O)Nc2sc(Cc3cccc(C(F)(F)F)c3)nc2C)c(C)o1 [Example 26, 2,5-dimethyl-N-{4-methyl-2-[3-(trifluoromethyl)benzyl]-1,3-thiazol-5-yl}furan-3-carboxamide] |  |  | 78 |
| CCS(=O)(=O)N1CCC(C(=O)Nc2sc(Cc3cccc(C(F)(F)F)c3)nc2C)C1 (stereo not drawn) [Example 30, 1-(ethylsulfonyl)-N-(4-methyl-2-[3-(trifluoromethyl)benzyl]-1,3-thiazol-5-yl}pyrrolidine-3-carboxamide] |  |  | 81 |
| Cc1nc(Cc2cc(F)cc(Cl)c2)sc1NC(=O)C1CCS(=O)(=O)CC1 [Example 208, N-[2-(3-chloro-5-fluorobenzyl)-4-methyl-1,3-thiazol-5-yl]-tetrahydro-2H-thiopyran-4-carboxamide 1,1-dioxide] | 72 |  |  |
| Cc1nc(Cc2cc(F)cc(Cl)c2)sc1NC(=O)c1cc(Cl)nn1C [Example 149, 3-chloro-N-[2-(3-chloro-5-fluorobenzyl)-4-methyl-1,3-thiazol-5-yl]-1-methyl-1H-pyrazole-5-carboxamide] | 75 |  |  |
| CCNC(=O)N1CCC(C(=O)Nc2sc(Cc3cccc(C(F)(F)F)c3)nc2C)C1 (stereo not drawn) [Example 23, N1-ethyl-N3-{4-methyl-2-[3-(trifluoromethyl)benzyl]-1,3-thiazol-5-yl}pyrrolidine-1,3-dicarboxamide] |  |  | 80 |
